“Also recorded” adds a separate entry of the source. Like-named read-outs stand apart in the source and are kept apart here.
Key:
[1] = Toxicity of compounds, MTT assay; type: cell-based, human; details: human, foreskin fibroblasts
Description: (§1) Toxicity of compounds. Toxicity of the different doses of the various analogues were performed at least in triplicates, using a modification of the Microculture Tetrazolium (MTT) assay and uninfected monolayers of human foreskin fibroblasts. Briefly, confluent cells were incubated for at least 24 hours in the 96-well flat bottom microtiterplates (~10^5 /200 μL/well) and incubated at 37° C. in 5% CO2, 95% air to allow the cells to attach. The medium was then replaced with 200 μL of fresh medium. […] The cultures were then incubated for 48 hours, after which 50 μL of sterile MTT solution (2 mg/1 mL PBS) was added to each well. MTT solution was sterilized by filtration through 0.22 μm filters (Costar, Cambridge, Mass.). After 4 hours incubation, the medium was removed and 100 μL of dimethylsulfoxide (DMSO) was added to each well and the plates were shaken gently for 2-3 minutes to dissolve the formed formazan crystals. The absorbance was measured at 540 nm, using a computerized microtiterplate reader (Themomax, Molecular Division)

[2] = test system: Toxoplasma gondii grown in human fibroblasts; experiment: Incorporation of radiolabeled uracil (parasite survival); type: cell-based; details: for activity at 5 µM / activity at 10 µM / activity at 25 µM / activity at 50 µM: Toxoplasma gondii, Fibroblast, [5,6-3H]uracil incorporation, read-out: percent survival of Toxoplasma gondii grown in human fibroblasts
Description: Incorporation of Radiolabeled Uracil. […] Uptake and incorporation of radiolabeled uracil into nucleic acids of T. gondii were carried out, at least in triplicates, in tissue culture, using monolayers of human foreskin fibroblasts infected with T. gondii. The fibroblasts were cultured in no more than 30 passages in Dulbecco's modified Eagle medium, containing 100 units/mL penicillin G and 100 μg/mL streptomycin sulfate, and 10% FBS, pH 7.2. Briefly, confluent cells (4-5 day incubation) were cultured for 24 hours in the 24-well flat bottom microtiterplates (~5×10^5 /1 mL/well) and incubated at 37° C. in 5% CO2, 95% air to allow the cells to attach. The medium was then removed and the cells were infected with isolated T. gondii in medium with 3% FBS (1 parasite/cell). After 1 hour incubation, the cultures were washed with media with 10% FBS to remove extracellular parasites. FBS was maintained at a final concentration of 10%. […] After an additional 18 hours incubation, the medium was replaced with 1 mL drug free media containing […] (2 μCi/mL) and incubated for another 6 hours, after which the media was removed. The fibroblasts were released from the wells by trypsinization with the addition of 200 μL trypsin/EDTA (2.5×) to each well. After 10 minutes incubation, 1 mL of ice cold 10% trichloroacetic acid (TCA) was added to each well. The plates were then placed on a shaker to insure the detachment of the cells. The suspended contents of each well were filtered through GF/A 2.4 cm glass microfiber filters (Whatman, Hillsboro, Oreg.), which were prewashed each with 1 mL double distilled H2 O and dried. After filtration, the filters were washed with 10 mL methanol, left to dry, and then placed in scintillation vials containing 5 mL of Econo-Safe scintillation fluor (Research Products International Corp., Mount Prospect, Ill.), and radioactivity was counted using an LS5801 Beckman scintillation counter.

[3] = test system: extracts from different strains of Toxoplasma; experiment: Conversion of NBMPR to NBMPR-P in the presence of ATP or PRPP by extracts of different strains; type: biochemical, Toxoplasma gondii
Description: Maintenance of T. gondii. The wild type RH, the adenosine kinase deficient mutant ara-A^R (R), and the phosphoribosyltransferase deficient mutants (HGPRT^- and Tnx^R-1) strains of T. gondii were propagated by intraperitoneal passage in female CD1 mice (20-25 g). Mice were injected intraperitoneally (i.p.) with an inoculum (10^6 cells) of T. gondii contained in 0.2 ml of sterile phosphate buffered saline (PBS), pH 7.2, and were sacrificed after 2-3 days by inhalation of ether. The parasites were harvested from the peritoneal cavity by injection, aspiration and reinjection of 3-5 mL of PBS (2-3 times). The peritoneal fluid was examined microscopically to determine the concentration of T. gondii and to ascertain the extent of contamination by host cells.
Enzyme assay. […] Incubation was carried out at 37° C.
Phosphoribosyltransferase activity was measured by following the formation of [^3 H] NMMPR-P from [^3 H] NBMPR and 5-phosphoribosyl-1-pyrophosphate (PRPP). The standard reaction mixtures contained 50 mM Tris-Cl (pH 7.4), 10 μM [^3 H] NBMPR (55 Ci/mol), 4 mM PRibPP, 20 mM MgCl2, 50 mM KCI, and 50 μl of enzyme extract (4-8 μg of protein) in a final volume of 100 μl. Reactions were incubated at 37° C. and terminated in boiling water bath for 2 minutes. Precipitated proteins were removed by centrifugation. A 10 μl aliquot of the resulting supernatant was spotted on cellulose thin layer chromatography plates which were developed with 5% dibasic potassium phosphate. The average Rf values were as follows: NBMPR, 0.28; NBMP, 0.16; NBMPR-P, 0.44. The radioactivity was quantified using a Berthold TLC Linear Analyzer (Wallac, Inc., Gaithersburg, Md.). All assays were run under conditions in which velocity was linear with respect to time and amount of enzyme extract. Enzyme velocity was calculated by multiplying the fraction of nucleotide formed from nucleoside by the amount of nucleoside in the assay divided by the incubation time. Specific activity was estimated by dividing enzyme velocity by the amount of protein in the assay.

[4] = test system: Toxoplasma gondii grown in human fibroblasts; experiment: Plaque formation in human fibroblasts; type: cell-based; details: control (0 μM) 21 ± 3.5
Source text: To investigate the effect of metabolizing NBMPR on the survival of T. gondii, the number and size of plaque formation by T. gondii on human fibroblasts was investigated. NBMPR decreased the number and size of toxoplasma in human fibroblasts (Table 13).

extracts of mouse spleen = details: spleen cytosol extract, 50 µM
Description: (§2) Preparation of extracts. Extracts of T. gondii were prepared by homogenizing parasites or tissues in ice cold (3:1, v/w) 50 mM Tris-Cl buffer (pH 7.4) containing 1 mM EDTA, 1 mM dithiothreitol with a polytron homogenizer (Brinkmann, Westbury, N.Y.) and the homogenates were centrifuged at 105,000×g for 1 hour at 4° C. The supernatant fluids (cytosol) were collected and used as the enzyme source.
(§3) Conversion assays. To measure the percent conversion of NBMPR to NBMPR-P and nucleobase (NBMP) by extracts of Toxoplasma gondii and mouse spleen, 50 mM Tris-Cl (pH 7.4), 5 mM MgCl2, 2.5 mM ATP, 5 mM creatine phosphate, creatine phosphokinase, 50 μM [^3 H-(G)] NBMPR (1.95 μCi/nmol), and 10 μl of cytosol extract were reacted in a final volume of 20 μl and incubated at 37° C. Reaction was initiated by addition of extract and terminated by boiling for 3 minutes. In a second reaction, 25 mM KCN was added to the reaction mixture.
(§4) The plates for the assays of NBMPR were developed in n-butanol/ethyl acetate/NH4 /methanol (49:28:28:21, v/v/v/v). The Rf values were: NBMPR, 0.76; NBMPR-P, 0.50; NBMP, 0.89. The amounts of radioactivity in the substrate (nucleoside) and product (nucleobase and nucleotides) were calculated on a percentage basis using a Berthold LB-284 Automatic TLC-Linear Analyzer.

[5] = test system: extracts of Toxoplasma gondii; details: 50 µM; for Percent conversion of NBMPR to NBMP: t. gondii extract; for Percent conversion of NBMPR to NBMPR-P / Percent conversion of NBMPR to nucleobase (NBMP): toxoplasma gondii
Description: as §2, §3, §4

[6] = test system: uninfected human foreskin fibroblasts; experiment: Toxicity of compounds, MTT assay; type: cell-based
Description: as §1

[7] = test system: Toxoplasma gondii RH strain tachyzoites; experiment: Chemotherapy of Toxoplasma-infected mice; type: in vivo
Description: Chemotherapy of Toxoplasma-Infected Mice. Female CD-1 mice, approximately 22 g (Charles River Laboratories, Wilmington, Mass.), were infected with 200 RH strain tachyzoites/mouse by i.p. injection. The treatment group received 100 mg/kg NBMPR-P i.p. injections every 8 hours on Days 0, 2, 4 and 5, in proportion of 0.1 ml/10 g. Mice were maintained under controlled temperature (25° C.) and light (12/12 hours, light/dark), food and water ad libitum, and survival was monitored daily.
Each mouse was infected with 200 tachyzoites and the treatment group received 100 mg/kg NBMPR-P i.p. injections every 8 hours on Days 0, 2, 4 and 5 in proportion of 0.1 ml/10 g. The survivorship of the treated mice can be improved by manipulation of the dose and regimen of NBMPR.

[8] = survivors/total, 100 mg/kg i.p. every 8 hours on Days 0, 2, 4 and 5

O=[N+]([O-])c1ccc(CSc2ncnc3c2ncn3[C@@H]2O[C@H](CO)[C@@H](O)[C@H]2O)cc1 [Compound 21, 6-(p-Nitrobenzyl)mercaptopurine riboside (NBMPR)]
viability at 48 h, 5 µM [1]: 98.8%
viability at 48 h, 10 µM [1]: 97.1%
viability at 48 h, 25 µM [1]: 96.3%
viability at 48 h, 50 µM [1]: 95.4%
activity at 5 µM [2]: 74.3%
activity at 10 µM [2]: 55.5%
activity at 25 µM [2]: 23.1%
activity at 50 µM [2]: 6.7%
Percent conversion of NBMPR to NBMPR-P ([3]; strain Ara-A^R, +ATP): 0%
Percent conversion of NBMPR to NBMPR-P ([3]; strain Ara-A^R, +PRPP): 3.8 ± 0.2%
Percent conversion of NBMPR to NBMPR-P ([3]; strain HGPRT^-, +ATP): 2.6 ± 1.3%
Percent conversion of NBMPR to NBMPR-P ([3]; strain HGPRT^-, +PRPP): 0%
Percent conversion of NBMPR to NBMPR-P ([3]; strain RH, +ATP): 0.7 ± 0.2%
Percent conversion of NBMPR to NBMPR-P ([3]; strain RH, +PRPP): 4.3 ± 0.3%
Percent conversion of NBMPR to NBMPR-P ([3]; strain Thx^R-1, +ATP): 2.0 ± 0.6%
Percent conversion of NBMPR to NBMPR-P ([3]; strain Thx^R-1, +PRPP): 0%
Number of Plaques ([4]; NBMPR 33 μM): 23 ± 0.7
Number of Plaques ([4]; NBMPR 100 μM): 3 ± 1.4
Percent conversion of NBMPR to NBMPR-P (extracts of mouse spleen; 0.25 h): 0%
Percent conversion of NBMPR to nucleobase (NBMP) (extracts of mouse spleen; 0.25 h): 0%
Percent conversion of NBMPR to NBMPR-P (extracts of mouse spleen; 0.5 h): 0%
Percent conversion of NBMPR to nucleobase (NBMP) (extracts of mouse spleen; 0.5 h): 0%
Percent conversion of NBMPR to NBMPR-P (extracts of mouse spleen; 1 h): 0%
Percent conversion of NBMPR to nucleobase (NBMP) (extracts of mouse spleen; 1 h): 0%
Percent conversion of NBMPR to NBMPR-P (extracts of mouse spleen; 2 h): 0%
Percent conversion of NBMPR to nucleobase (NBMP) (extracts of mouse spleen; 2 h): 0%
Percent conversion of NBMPR to NBMPR-P (extracts of mouse spleen; 4 h): 0%
Percent conversion of NBMPR to nucleobase (NBMP) (extracts of mouse spleen; 4 h): 0%
Percent conversion of NBMPR to NBMP ([5]; 0.25 h): 0.9 ± 0.3%
Percent conversion of NBMPR to NBMP ([5]; 0.5 h): 2.8 ± 3.8%
Percent conversion of NBMPR to NBMP ([5]; 1 h): 4.0 ± 1.3%
Percent conversion of NBMPR to NBMP ([5]; 2 h): 9.5 ± 1.3%
Percent conversion of NBMPR to NBMP ([5]; 4 h): 14.3 ± 3.3%
Percent conversion of NBMPR to NBMPR-P ([5]; cytosol extract with kcn, 0.25 h): 0.5 ± 0.1%
Percent conversion of NBMPR to NBMPR-P ([5]; cytosol extract with kcn, 0.5 h): 1.1 ± 0.1%
Percent conversion of NBMPR to NBMPR-P ([5]; cytosol extract with kcn, 1 h): 3.7 ± 2.5%
Percent conversion of NBMPR to NBMPR-P ([5]; cytosol extract with kcn, 2 h): 5.8 ± 0.7%
Percent conversion of NBMPR to NBMPR-P ([5]; cytosol extract with kcn, 4 h): 11.8 ± 4.8%
Percent conversion of NBMPR to NBMPR-P ([5]; cytosol extract, 0.25 h): 2.1 ± 0.5%
Percent conversion of NBMPR to nucleobase (NBMP) ([5]; cytosol extract, 0.25 h): 8.0 ± 0.4%
Percent conversion of NBMPR to NBMPR-P ([5]; cytosol extract, 0.5 h): 3.2 ± 0.4%
Percent conversion of NBMPR to nucleobase (NBMP) ([5]; cytosol extract, 0.5 h): 7.8 ± 3.7%
Percent conversion of NBMPR to NBMPR-P ([5]; cytosol extract, 1 h): 7.8 ± 1.5%
Percent conversion of NBMPR to nucleobase (NBMP) ([5]; cytosol extract, 1 h): 14.8 ± 1.2%
Percent conversion of NBMPR to NBMPR-P ([5]; cytosol extract, 2 h): 9.4 ± 1.0%
Percent conversion of NBMPR to nucleobase (NBMP) ([5]; cytosol extract, 2 h): 9.4 ± 2.8%
Percent conversion of NBMPR to NBMPR-P ([5]; cytosol extract, 4 h): 15.1 ± 4.4%
Percent conversion of NBMPR to nucleobase (NBMP) ([5]; cytosol extract, 4 h): 10.4 ± 6.2%

O=[N+]([O-])c1ccc(CSc2ncnc3c2ncn3[C@@H]2O[C@H](COP(=O)(O)O)[C@@H](O)[C@H]2O)cc1 [NBMPR-P, 6-[4-nitrobenzylthio]-9-β-D-ribofuranosyl purine 5'-monophosphate]
viability at 48 h, 5 µM ([1]; 5 μM, MTT, 48 hours, read-out: percent survival of uninfected human fibroblasts): 103%
viability at 48 h, 10 µM ([1]; 10 μM, MTT, 48 hours, read-out: percent survival of uninfected human fibroblasts): 94.6%
viability at 48 h, 25 µM ([1]; 25 μM, MTT, 48 hours, read-out: percent survival of uninfected human fibroblasts): 93.6%
viability at 48 h, 50 µM ([1]; 50 μM, MTT, 48 hours, read-out: percent survival of uninfected human fibroblasts): 96.1%
Effect on host (mammalian) cells, in words ([6]; doses up to 100 μM): did not affect host cells; also recorded: without affecting mammalian cells
Toxicity to host cells (human fibroblasts), in words ([6]; therapeutic doses (5-50 μM tested)): no significant toxic effect
activity at 5 µM [2]: 75.3%
activity at 10 µM [2]: 53.3%
activity at 25 µM [2]: 21.4%
activity at 50 µM [2]: 10.2%
Effect on T. gondii grown in human fibroblasts, in words ([2]; in vitro): inhibited; also recorded: kill T. gondii grown in human fibroblasts in a dose dependent manner; also recorded: effectively eliminate T. gondii parasites
life span of infected mice ([7]; increased from 6 days without treatment): 8 days
Survival Day 7 [7, 8]: 3/3
Survival Day 8 [7, 8]: 2/3
Survival Day 9 [7, 8]: 0/3
Survival Day 6 ([7]; survivors/total, 100 mg/kg i.p. every 8 hours on Days 0, 2, 4 and 5, untreated 0/3): 3/3
